PMC7881204, “A small-molecular inhibitor against Proteus mirabilis urease to treat catheter-associated urinary tract infections” (Scientific Reports, 2021)

Key:
urease [1] = target: T1, urease (Canavalia ensiformis, UniProt P07374); test: colorimetric urease assay (phenol red), dose-response; format: biochemical
T1 construct: Type III powder, urease from C. ensiformis (Merck)

urease [2] = target: T1, urease; test: colorimetric urease assay (phenol red), Dixon plot; IC50 […]; format: biochemical

T1 sequence (P07374 whole entry, looked up): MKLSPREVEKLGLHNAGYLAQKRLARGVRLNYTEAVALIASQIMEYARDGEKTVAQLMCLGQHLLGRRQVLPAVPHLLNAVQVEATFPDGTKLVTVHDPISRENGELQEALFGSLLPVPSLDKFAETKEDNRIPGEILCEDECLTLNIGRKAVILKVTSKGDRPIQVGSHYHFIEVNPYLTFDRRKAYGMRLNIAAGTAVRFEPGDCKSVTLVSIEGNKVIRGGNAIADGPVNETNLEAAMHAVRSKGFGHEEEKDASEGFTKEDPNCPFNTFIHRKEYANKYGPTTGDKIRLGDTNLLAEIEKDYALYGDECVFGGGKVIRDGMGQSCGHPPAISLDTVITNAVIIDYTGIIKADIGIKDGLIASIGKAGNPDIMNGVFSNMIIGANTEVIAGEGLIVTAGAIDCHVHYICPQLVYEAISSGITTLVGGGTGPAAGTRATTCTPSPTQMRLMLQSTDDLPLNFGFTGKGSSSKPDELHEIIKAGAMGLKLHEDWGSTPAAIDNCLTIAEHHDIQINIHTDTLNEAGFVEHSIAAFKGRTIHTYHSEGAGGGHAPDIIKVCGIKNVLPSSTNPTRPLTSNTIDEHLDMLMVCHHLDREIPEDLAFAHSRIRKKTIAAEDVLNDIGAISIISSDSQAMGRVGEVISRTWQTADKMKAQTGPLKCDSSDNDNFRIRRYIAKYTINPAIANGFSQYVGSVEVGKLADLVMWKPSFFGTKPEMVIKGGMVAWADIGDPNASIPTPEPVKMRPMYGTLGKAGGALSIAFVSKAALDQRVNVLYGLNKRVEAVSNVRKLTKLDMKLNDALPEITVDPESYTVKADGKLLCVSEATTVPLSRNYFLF

SMILES: CC(=O)NO [AHA, acetohydroxamic acid]
- IC50 (urease [1]): 4.8 mM

SMILES: NC(=O)CS [2-MA, 2-mercaptoacetamide]
- Ki (urease [2]): 2.95 mM
